# From ChEMBL document CHEMBL1201862, “PubChem BioAssay data set” (2004)
# The source made the active and inactive calls.
# Tests used:
# [1] = tested on: Vero; test: cells; type: functional; details: Chlorocebus sabaeus
# [2] = tested on: Vero; test: cells; type: functional, cell-based; details: Chlorocebus sabaeus
# [3] = Luminescence Cell-Based Dose Retest to Confirm Inhibitors of Cancer Stem Cells. [Related pubchem assays (depositor defined):AID2717, AID2721]; type: functional; details: Homo sapiens
# [4] = viability loss of HMLE_sh_eGFP cells – cell-based, luminescence, counter-screen for HMLE_sh_ECad selective toxicity project, dose response (AID 463074); type: functional, Homo sapiens;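 further: HMLE human mammary epithelial cells expressing control shRNA against eGFP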
# [5] = biological target: Cytochrome P450 2D6 (Homo sapiens, UniProt P10635);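 further: CYP2D6 member of a cytochrome P450 panel assay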
# [6] = biological target: Cytochrome P450 3A4 (Homo sapiens, UniProt P08684);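 further: CYP3A4 tested as one member of a cytochrome P450 panel screen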
# [7] = biological target: Cytochrome P450 2C19 (Homo sapiens, UniProt P33261); test: Cytochrome panel assay with activity outcomes. Panel member name: p450-cyp2c19 Compounds with AC50 equal or less than 10 uM are considered active; type: functional
# [8] = biological target: T1, Exodeoxyribonuclease V (Escherichia coli (strain K12), UniProt P04993+P07648+P08394); test: RecBCD inhibition via phage-restricted bacterial growth – absorbance, V66 E. coli, mutant T4 phage, counter-screen for AddAB inhibitor project, dose response (AID 492957); type: functional, cell-based, Escherichia coli str. K-12 substr. MG1655
# T1 sequence (P04993 whole entry): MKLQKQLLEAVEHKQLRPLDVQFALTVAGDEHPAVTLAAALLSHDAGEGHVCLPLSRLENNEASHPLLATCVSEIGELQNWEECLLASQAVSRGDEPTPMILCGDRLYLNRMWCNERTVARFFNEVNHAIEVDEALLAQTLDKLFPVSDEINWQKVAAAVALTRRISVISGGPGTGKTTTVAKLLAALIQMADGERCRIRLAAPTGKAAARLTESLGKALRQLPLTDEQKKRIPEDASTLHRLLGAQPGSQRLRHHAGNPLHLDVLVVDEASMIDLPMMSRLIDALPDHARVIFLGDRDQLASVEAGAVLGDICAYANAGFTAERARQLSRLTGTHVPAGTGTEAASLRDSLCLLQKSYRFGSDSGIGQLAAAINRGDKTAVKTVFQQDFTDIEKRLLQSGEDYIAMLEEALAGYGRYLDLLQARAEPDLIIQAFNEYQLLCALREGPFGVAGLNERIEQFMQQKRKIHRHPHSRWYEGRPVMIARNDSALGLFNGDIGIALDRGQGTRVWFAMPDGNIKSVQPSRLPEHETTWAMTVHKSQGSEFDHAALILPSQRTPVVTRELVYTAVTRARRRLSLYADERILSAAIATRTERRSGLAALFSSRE
# T1 sequence (P07648 whole entry): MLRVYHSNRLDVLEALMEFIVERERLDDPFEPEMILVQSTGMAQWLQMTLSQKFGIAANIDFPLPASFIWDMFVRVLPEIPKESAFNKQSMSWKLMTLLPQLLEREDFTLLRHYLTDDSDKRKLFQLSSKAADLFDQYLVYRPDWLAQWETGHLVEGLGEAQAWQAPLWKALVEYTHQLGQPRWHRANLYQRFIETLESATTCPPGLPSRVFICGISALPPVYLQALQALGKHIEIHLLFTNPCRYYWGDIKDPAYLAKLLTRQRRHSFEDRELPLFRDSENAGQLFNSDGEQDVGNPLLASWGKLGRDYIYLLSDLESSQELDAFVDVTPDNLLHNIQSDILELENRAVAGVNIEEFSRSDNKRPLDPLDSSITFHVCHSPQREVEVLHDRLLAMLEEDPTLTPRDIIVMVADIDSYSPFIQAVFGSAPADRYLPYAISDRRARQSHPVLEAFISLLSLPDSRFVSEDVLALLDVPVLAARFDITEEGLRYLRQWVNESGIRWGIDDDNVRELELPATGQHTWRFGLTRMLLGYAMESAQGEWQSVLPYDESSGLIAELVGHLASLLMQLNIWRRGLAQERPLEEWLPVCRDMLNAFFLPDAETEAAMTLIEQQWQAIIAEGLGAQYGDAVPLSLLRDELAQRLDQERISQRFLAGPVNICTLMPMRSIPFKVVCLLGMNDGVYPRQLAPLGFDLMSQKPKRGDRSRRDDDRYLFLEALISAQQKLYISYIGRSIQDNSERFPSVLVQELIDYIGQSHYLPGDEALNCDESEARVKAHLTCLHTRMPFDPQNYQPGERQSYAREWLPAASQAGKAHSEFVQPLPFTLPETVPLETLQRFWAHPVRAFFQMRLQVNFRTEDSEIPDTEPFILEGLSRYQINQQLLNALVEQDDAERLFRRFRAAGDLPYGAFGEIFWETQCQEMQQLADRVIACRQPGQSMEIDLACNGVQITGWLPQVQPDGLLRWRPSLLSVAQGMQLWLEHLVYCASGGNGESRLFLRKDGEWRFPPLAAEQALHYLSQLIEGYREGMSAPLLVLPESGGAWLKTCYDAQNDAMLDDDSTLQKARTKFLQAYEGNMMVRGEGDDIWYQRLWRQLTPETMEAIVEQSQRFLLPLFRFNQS
# T1 sequence (P08394 whole entry): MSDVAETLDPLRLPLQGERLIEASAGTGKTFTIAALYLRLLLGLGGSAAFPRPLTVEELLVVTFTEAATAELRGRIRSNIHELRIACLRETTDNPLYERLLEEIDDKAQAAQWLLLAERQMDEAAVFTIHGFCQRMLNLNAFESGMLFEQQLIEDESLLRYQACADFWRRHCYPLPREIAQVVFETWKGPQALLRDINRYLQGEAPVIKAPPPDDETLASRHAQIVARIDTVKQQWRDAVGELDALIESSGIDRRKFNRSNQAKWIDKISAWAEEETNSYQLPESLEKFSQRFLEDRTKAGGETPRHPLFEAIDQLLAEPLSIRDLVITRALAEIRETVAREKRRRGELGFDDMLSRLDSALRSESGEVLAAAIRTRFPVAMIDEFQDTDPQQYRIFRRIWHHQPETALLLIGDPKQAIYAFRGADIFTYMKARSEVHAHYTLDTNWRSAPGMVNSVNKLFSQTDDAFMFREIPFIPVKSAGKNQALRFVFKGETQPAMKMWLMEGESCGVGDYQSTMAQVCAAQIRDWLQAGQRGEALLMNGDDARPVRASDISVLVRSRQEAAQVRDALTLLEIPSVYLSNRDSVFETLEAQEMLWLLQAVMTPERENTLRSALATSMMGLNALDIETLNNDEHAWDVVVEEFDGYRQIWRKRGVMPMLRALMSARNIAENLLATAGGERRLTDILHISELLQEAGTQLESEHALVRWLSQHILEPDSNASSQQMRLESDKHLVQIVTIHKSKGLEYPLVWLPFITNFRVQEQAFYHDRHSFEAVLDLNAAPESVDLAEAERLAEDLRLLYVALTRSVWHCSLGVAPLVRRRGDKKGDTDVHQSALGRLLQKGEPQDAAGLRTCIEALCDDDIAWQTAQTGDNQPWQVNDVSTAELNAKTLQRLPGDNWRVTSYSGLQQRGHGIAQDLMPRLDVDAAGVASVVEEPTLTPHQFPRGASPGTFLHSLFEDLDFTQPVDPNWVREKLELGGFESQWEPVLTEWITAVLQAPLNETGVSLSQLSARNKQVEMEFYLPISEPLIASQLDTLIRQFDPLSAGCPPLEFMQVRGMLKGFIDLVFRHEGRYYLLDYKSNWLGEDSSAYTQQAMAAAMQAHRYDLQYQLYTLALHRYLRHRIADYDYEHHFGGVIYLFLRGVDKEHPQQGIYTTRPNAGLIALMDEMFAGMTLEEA
# [9] = fluconazole-exposed Candida albicans growth modulators – fluorescence, retest, confirmation (AID 2467); type: functional, cell-based
# [10] = Counterscreen for AddAB inhibitors: absorbance-based bacterial cell-based high throughput dose response assay for inhibitors of bacterial viability. [Related pubchem assays (depositor defined):AID435030, AID449728, AID449731, AID488942, AID488955, AID488956]; type: functional
# [11] = NIH-3T3 fibroblast cytotoxicity, dose response, cytotoxicity control, cell-based, fluorescence, Alamar Blue, secondary assay (AID 2327); type: functional;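 further: NIH-3T3 mouse fibroblasts cultured with fluconazole at 8 µg/mL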
# [12] = tested on: Jurkat; test: blockers of NF-kB activation in T cells – Jurkat, luciferase reporter, luminescence, B- and T-cell, dose response (AID 489004); type: functional, cell-based; details: Homo sapiens;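 further: NF-kB luciferase reporter Jurkat cells stimulated with PMA plus ionomycin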
# [13] = HEK-293T viability loss, compound-treated – cell-based, uHTS hits, cytotoxicity control for B/T-cell NF-kB inhibitor project, dose response (AID 489019); type: functional;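 further: IC50 reflects cytotoxicity as loss of cell viability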
# [14] = microbe, parasite or virus in culture; type: functional; details: Mycobacterium tuberculosis
# [15] = biological target: T2, RNA-binding protein pos-1 (Caenorhabditis elegans, UniProt G5EF15); test: disruptors of C. elegans POS-1 RNA interaction – biochemical, fluorescence polarization, dose response (AID 1964);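 further: purified POS-1 fused to maltose binding protein made in E. coli; potency of compounds blocking POS-1 binding to fluorescent RNA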
# T2 sequence (G5EF15 whole entry): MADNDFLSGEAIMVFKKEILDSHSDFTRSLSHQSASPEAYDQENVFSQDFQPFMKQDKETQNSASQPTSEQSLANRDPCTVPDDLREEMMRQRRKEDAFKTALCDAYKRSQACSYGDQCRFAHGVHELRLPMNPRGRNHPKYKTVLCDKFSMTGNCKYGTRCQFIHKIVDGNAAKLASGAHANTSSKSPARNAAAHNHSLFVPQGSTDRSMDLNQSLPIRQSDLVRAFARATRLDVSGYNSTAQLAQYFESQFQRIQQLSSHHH
# [16] = biological target: T3, Zinc finger protein mex-5 (Caenorhabditis elegans, UniProt Q9XUB2); test: potency of MEX-5 RNA-binding blockers – biochemical, C. elegans, fluorescence polarization, dose response (AID 1960)
# T3 sequence (Q9XUB2 whole entry): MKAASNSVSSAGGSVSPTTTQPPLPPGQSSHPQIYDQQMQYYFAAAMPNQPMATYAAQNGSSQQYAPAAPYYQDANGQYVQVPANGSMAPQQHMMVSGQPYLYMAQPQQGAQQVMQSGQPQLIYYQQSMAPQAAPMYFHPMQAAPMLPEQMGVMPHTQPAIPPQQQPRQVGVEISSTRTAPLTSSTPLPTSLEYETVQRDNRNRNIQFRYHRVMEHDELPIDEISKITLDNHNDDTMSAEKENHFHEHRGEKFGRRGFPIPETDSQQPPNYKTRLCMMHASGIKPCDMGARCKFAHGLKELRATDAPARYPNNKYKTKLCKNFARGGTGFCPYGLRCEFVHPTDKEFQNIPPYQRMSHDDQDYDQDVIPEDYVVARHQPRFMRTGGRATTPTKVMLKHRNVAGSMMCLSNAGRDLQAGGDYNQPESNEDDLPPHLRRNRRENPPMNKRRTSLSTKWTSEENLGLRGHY
# Chain of Cytochrome P450 2D6 (P10635 whole entry): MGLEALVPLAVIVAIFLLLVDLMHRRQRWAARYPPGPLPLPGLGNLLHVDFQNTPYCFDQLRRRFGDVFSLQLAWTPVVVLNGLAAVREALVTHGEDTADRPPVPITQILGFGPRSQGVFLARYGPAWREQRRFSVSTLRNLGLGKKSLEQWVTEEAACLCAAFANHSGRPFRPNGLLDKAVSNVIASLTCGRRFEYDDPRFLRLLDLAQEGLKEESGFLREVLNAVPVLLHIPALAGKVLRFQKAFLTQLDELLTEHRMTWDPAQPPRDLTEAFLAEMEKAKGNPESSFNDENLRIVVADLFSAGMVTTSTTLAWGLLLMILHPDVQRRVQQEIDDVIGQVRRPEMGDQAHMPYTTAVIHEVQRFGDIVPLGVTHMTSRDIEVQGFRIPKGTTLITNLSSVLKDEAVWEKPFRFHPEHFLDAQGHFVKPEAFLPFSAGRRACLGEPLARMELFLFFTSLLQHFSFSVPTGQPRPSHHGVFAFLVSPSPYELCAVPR
# Chain of Cytochrome P450 2C19 (P33261 whole entry): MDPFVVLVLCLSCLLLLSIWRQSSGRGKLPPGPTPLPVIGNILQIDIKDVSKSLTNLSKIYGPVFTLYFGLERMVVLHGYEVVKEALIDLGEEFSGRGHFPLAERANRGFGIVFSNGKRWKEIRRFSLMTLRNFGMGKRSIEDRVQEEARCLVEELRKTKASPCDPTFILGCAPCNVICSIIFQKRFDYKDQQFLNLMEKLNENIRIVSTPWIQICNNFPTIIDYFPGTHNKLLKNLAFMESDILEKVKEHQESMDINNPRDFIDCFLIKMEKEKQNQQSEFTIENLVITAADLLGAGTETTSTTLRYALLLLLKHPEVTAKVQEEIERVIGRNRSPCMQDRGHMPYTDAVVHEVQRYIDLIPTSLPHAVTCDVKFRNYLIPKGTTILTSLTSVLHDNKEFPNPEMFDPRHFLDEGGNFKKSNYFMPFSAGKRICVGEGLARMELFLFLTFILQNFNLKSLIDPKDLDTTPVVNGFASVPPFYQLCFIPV
# Chain of Cytochrome P450 3A4 (P08684 whole entry): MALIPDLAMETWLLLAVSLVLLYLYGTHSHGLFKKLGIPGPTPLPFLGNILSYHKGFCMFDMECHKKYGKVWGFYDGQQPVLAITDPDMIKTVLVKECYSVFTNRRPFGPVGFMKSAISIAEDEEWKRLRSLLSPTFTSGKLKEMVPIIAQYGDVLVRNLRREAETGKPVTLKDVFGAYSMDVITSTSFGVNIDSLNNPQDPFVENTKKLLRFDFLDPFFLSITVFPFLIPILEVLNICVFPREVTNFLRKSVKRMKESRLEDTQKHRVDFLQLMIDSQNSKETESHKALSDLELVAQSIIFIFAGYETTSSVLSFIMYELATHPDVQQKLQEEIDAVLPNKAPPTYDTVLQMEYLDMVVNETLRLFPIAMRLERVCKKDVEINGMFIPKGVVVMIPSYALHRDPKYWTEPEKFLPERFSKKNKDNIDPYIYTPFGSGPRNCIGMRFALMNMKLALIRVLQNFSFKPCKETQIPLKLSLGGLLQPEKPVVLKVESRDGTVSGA
compound,measurement,setting,value
CCN1CCN(C(=O)C2CCN(Cc3nc(-c4cccc(Cl)c4)oc3C)CC2)CC1,CC50,[1],> 25 µM (active)
same,IC50,[2],> 25 µM (active)
COc1ccc(C(=O)C=Cc2ccc(OCc3ccccc3)c(OC)c2)cc1OC,CC50,[1],20.9 µM (active)
Cc1csc(NC(=O)c2ccc(COc3ccccc3)o2)n1,AC50,[3],2.62 µM (active)
same,AC50,[4],32.2 µM (active)
CC(C)(CN)CN,AC50,[5],inconclusive
C[C@@H](O)CC(C)(C)N.Oc1c(Cl)c(Cl)c(Cl)c(Cl)c1Cl,AC50,[6],inconclusive
same,AC50,[5],inactive
same,AC50,[7],inactive
O=C(NNC(=O)c1cc(-c2ccncc2)nc2ccccc12)c1ccccc1O,IC50,[8],> 119 µM (inactive)
same,EC50,[9],3.18 µM (active)
same,IC50,[10],> 119 µM (inactive)
same,EC50,[11],> 160 µM (inactive)
ClCCn1cnc2c(SCc3ccccc3Cl)ncnc21,IC50,[2],< 0.05 µM (active)
c1ccc2sc(Sc3ncnc4sccc34)nc2c1,IC50,[12],0.41 µM (active)
same,IC50,[13],> 80 µM (inactive)
same,CC50,[14],32.9 µM (active)
CC(=O)Oc1cc2cccc(OC(C)=O)c(=O)c2c(OC(C)=O)c1OC(C)=O,IC50,[8],> 119 µM (inactive)
same,EC50,[15],5.6 µM (active)
same,IC50,[10],> 119 µM (inactive)
same,EC50,[16],2.01 µM (active)
